What all share (assay): Inhibition assay, microfluidic LabChip (Nanosyn)
Holding throughout (type): biochemical

One assay concerns the target CDK1/B (Homo sapiens, UniProt P06493). To be noted: Table 3a. The method, then: (§1) The reaction was terminated by the addition of EDTA. The plates were analyzed using a Caliper LabChip 3000.
(§2) Additional inhibition assays were performed as described above.

Another assay concerns the target T1, CDK9-CYCLINT1 (Homo sapiens, UniProt P50750).
T1 construct: purchased Carna
The method, then: as §1, §2

The next assay addresses T2, CDK4-CYCLIND1 (Homo sapiens, UniProt P11802).
T2 construct: purchased Invitrogen
As to conditions: read-out: CDK4 CyclinD1 IC50. The method, then: as §1, §2

In a further assay the target is T3, CDK2-CYCLINA (Homo sapiens, UniProt P24941).
T3 construct: purchased Millipore
The method, then:
as §1, §2

For another assay, the target named is CDK7 CyclinH (Homo sapiens, UniProt P50613). The method, then: as §1, §2

Like-named read-outs stand apart in the source and are kept apart here.

Sequence of CDK7 CyclinH (P50613 whole entry): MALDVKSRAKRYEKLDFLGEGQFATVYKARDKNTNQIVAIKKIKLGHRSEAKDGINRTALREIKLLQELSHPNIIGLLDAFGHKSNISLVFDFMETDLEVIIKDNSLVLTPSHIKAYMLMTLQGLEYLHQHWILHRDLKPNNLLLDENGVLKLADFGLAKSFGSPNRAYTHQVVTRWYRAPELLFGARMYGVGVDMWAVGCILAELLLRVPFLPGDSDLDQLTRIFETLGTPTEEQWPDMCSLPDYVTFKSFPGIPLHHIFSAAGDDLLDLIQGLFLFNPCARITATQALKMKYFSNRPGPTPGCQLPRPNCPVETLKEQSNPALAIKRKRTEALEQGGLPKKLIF
Sequence of CDK7 CyclinH (P51946 whole entry partner): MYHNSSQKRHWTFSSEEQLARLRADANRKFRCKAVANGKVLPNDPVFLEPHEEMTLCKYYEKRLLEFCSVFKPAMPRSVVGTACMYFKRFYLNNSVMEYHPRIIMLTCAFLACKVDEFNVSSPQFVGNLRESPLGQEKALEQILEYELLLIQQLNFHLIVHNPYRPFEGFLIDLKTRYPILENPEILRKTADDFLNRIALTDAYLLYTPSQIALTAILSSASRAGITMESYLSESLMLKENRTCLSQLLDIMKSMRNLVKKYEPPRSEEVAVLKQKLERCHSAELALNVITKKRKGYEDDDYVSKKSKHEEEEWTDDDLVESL
Sequence of CDK7 CyclinH (P51948 whole entry partner): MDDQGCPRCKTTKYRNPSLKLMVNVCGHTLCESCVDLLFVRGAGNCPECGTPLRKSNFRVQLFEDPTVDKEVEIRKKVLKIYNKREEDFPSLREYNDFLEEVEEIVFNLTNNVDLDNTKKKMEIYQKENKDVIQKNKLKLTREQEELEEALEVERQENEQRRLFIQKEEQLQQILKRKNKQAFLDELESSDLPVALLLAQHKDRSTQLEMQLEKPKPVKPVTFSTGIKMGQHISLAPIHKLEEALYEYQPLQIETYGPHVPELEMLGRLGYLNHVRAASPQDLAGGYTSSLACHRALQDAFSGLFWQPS
T2 sequence (P11802 whole entry): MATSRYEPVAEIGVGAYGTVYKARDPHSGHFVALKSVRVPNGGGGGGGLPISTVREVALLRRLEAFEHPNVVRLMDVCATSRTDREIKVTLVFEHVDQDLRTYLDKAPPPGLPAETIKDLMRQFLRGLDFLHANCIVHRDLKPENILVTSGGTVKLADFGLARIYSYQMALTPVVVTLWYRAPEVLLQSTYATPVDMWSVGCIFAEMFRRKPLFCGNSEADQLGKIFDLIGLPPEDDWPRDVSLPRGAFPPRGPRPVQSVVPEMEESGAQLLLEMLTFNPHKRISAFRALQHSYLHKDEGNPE
T2 sequence (P24385 whole entry partner): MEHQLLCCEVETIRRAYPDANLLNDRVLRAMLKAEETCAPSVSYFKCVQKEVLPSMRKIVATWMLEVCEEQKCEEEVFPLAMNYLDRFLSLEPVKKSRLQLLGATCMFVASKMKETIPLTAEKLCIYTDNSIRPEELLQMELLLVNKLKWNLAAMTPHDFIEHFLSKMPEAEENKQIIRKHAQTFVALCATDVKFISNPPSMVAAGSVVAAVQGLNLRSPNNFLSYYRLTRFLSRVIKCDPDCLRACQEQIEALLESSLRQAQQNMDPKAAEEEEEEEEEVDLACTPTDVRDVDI
Sequence of CDK1/B (P06493 whole entry): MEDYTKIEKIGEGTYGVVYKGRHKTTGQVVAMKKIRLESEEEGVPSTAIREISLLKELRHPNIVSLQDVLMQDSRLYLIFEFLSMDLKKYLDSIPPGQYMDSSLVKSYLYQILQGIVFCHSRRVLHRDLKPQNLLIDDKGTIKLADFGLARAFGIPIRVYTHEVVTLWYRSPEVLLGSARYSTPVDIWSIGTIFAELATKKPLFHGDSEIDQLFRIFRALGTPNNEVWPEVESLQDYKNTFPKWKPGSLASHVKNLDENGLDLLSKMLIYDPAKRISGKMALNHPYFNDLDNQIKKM
Sequence of CDK1/B (P14635 whole entry partner): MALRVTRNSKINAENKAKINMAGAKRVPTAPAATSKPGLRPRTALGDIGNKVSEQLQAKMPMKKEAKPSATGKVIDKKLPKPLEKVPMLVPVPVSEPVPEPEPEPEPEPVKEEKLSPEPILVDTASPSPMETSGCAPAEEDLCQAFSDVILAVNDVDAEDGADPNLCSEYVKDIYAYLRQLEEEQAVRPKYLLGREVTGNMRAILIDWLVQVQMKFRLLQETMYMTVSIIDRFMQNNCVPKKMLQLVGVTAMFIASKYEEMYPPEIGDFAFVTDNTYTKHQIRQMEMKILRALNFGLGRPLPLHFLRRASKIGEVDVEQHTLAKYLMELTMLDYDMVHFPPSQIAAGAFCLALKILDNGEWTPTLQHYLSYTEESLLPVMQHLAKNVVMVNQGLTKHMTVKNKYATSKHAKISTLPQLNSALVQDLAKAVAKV
T1 sequence (P50750 whole entry): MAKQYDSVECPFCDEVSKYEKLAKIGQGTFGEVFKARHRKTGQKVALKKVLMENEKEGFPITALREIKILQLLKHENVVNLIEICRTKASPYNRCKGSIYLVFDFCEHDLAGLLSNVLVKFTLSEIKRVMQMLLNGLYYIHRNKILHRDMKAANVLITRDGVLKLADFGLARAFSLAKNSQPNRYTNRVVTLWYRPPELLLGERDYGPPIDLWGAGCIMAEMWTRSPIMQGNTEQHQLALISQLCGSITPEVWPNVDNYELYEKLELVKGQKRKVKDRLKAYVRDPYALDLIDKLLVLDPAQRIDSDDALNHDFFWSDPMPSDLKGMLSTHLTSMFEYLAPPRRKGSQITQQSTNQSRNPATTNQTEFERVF
T1 sequence (O60563 whole entry partner): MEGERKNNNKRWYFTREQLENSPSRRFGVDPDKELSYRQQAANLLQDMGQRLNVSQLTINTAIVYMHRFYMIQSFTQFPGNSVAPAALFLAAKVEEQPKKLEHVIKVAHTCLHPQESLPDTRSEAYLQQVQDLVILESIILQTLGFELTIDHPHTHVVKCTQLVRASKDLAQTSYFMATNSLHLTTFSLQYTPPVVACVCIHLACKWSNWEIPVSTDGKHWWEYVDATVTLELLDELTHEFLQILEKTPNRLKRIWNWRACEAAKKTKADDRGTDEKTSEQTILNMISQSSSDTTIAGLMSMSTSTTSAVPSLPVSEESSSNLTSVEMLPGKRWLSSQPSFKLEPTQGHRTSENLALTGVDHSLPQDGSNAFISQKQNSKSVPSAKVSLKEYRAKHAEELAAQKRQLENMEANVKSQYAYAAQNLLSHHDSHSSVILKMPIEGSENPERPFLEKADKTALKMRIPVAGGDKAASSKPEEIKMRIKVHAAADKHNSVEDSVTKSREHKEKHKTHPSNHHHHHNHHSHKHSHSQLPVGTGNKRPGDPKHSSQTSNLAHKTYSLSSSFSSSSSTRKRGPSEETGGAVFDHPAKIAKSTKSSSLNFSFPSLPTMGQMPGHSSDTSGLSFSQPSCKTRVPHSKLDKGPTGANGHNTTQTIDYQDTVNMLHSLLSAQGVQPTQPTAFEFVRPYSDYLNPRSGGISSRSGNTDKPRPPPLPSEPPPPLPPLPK

Turning to `CC1CN(c2ccc(Nc3ncc4cc(C(=O)N(C)C)n(C56CC(C5)C6)c4n3)cc2)CC(C)N1` (centres unmarked) [Compound A90, 7-(bicyclo[1.1.1]pentan-1-yl)-2-((4-(3,5-dimethylpiperazin-1-yl)phenyl)amino)-N,N-dimethyl-7H-pyrrolo[2,3-d]pyrimidine-6-carboxamide], the IC50 against CDK1/B was 1150 nM; against CDK9-CYCLINT1 (Table 3a), 9.26 nM; on CDK4-CYCLIND1 (Table 3a) it was 11.1 nM; on CDK4-CYCLIND1 (Table 3b), 11.1 nM; against CDK2-CYCLINA (Table 3a), 913 nM; at CDK2-CYCLINA (Table 3b), 913 nM. Further, the IC50 against CDK7 CyclinH (Table 3a) and against CDK7 CyclinH (Table 3b) was 5610 nM throughout.

Turning to `CN(C)C(=O)c1cc2cnc(Nc3ccc(S(C)(=O)=O)cc3)nc2n1C12CC(C1)C2` [Compound A79, 7-(bicyclo[1.1.1]pentan-1-yl)-N,N-dimethyl-2-((4-(methylsulfonyl)phenyl)amino)-7H-pyrrolo[2,3-d]pyrimidine-6-carboxamide], the half-maximal inhibitory concentration (IC50) is 97.1 nM against CDK1/B; < 3.2 nM on CDK9-CYCLINT1 (Table 3a); < 3.2 nM at CDK9-CYCLINT1 (Table 3b); 36 nM on CDK4-CYCLIND1 (Table 3a); 36 nM at CDK4-CYCLIND1 (Table 3b); 30.2 nM against CDK2-CYCLINA (Table 3a). Besides, the IC50 was 30.2 nM at CDK2-CYCLINA (Table 3b), > 10000 nM at CDK7 CyclinH (Table 3a) and > 10000 nM at CDK7 CyclinH (Table 3b).

On to `CN(C)C(=O)c1cc2cnc(Nc3ccc(N4CCN(CCO)CC4)c(F)c3)nc2n1C12CC(C1)C2` [Compound A74, 7-(bicyclo[1.1.1]pentan-1-yl)-2-((3-fluoro-4-(4-(2-hydroxyethyl)piperazin-1-yl)phenyl)amino)-N,N-dimethyl-7H-pyrrolo[2,3-d]pyrimidine-6-carboxamide], for which the half-inhibitory concentration (IC50) is 250 nM at CDK1/B; < 3.2 nM against CDK9-CYCLINT1 (Table 3a); < 3.2 nM against CDK9-CYCLINT1 (Table 3b); < 3.2 nM at CDK4-CYCLIND1 (Table 3a); < 3.2 nM at CDK4-CYCLIND1 (Table 3b); 245 nM at CDK2-CYCLINA (Table 3a). Also, the results for the IC50 against CDK2-CYCLINA (Table 3b), against CDK7 CyclinH (Table 3a) and at CDK7 CyclinH (Table 3b) were 245 nM, 938 nM and 938 nM, respectively.

By IC50 is commonly meant the concentration at which inhibition is half-maximal.

These data come from US20220056037A1 (SPV THERAPEUTICS INC., priority 2018, published 2022).
